Like-named read-outs stand apart in the source and are kept apart here.
Legend:
VEGF receptor KDR = target: T1, VEGF receptor KDR (Homo sapiens, UniProt P35968); experiment: In vitro receptor tyrosine kinase assay, VEGF receptor KDR (DELFIA); format: biochemical; details: GST-VEGFR2 806-1356, ATP 0.6 uM
T1 construct: made in house; host or cells: Sf9 cells (Spodoptera frugiperda), recombinant baculovirus
Text: In the case of VEGF receptor KDR a 1.6-kb cDNA corresponding to the catalytic domain of VEGFR2 or KDR (Genbank accession number AF035121 amino acid 806 to 1356) is cloned into the Pst I site of the pDEST20 Gateway vector (Invitrogen) for the production of a GST-tagged version of that enzyme.
The GST-VEGFR2806-1356 protein is expressed in Sf9 cells (Spodoptera frugiperda) upon infection with recombinant baculovirus construct.
The supernatant is loaded onto a GST-agarose column (Sigma) equilibrated with PBS pH 7.3. Following a four column volume (CV) wash with PBS pH 7.3+1% Triton X-100 and 4 CV wash with buffer B (50 mM Tris pH 8.0, 20% glycerol and 100 mM NaCl), bound proteins are step eluted with 5 CV of buffer B supplemented with 5 mM DTT and 15 mM glutathion. […] Final GST-VEGFR2806-1356 protein preparations concentrations are about 0.7 mg/ml with purity approximating 70%.

A549 = A549 inhibition of wound healing; format: cell-based; details: read-out: A549 INHIB WND ING IC50 UM
DU145 = DU145 scattering; format: cell-based; details: DU145 cells, read-out: CMET DU145 SCATT HEAL- IC50 UM
c-Met = target: T2, c-Met (Homo sapiens, UniProt P08581); experiment: c-Met phosphorylation direct ELISA in MKN45 cells; format: cell-based; details: 3 h treatment
T2 construct: endogenous in cells; host or cells: MKN45 gastric carcinoma cells
T2 sequence (P08581 25-1390): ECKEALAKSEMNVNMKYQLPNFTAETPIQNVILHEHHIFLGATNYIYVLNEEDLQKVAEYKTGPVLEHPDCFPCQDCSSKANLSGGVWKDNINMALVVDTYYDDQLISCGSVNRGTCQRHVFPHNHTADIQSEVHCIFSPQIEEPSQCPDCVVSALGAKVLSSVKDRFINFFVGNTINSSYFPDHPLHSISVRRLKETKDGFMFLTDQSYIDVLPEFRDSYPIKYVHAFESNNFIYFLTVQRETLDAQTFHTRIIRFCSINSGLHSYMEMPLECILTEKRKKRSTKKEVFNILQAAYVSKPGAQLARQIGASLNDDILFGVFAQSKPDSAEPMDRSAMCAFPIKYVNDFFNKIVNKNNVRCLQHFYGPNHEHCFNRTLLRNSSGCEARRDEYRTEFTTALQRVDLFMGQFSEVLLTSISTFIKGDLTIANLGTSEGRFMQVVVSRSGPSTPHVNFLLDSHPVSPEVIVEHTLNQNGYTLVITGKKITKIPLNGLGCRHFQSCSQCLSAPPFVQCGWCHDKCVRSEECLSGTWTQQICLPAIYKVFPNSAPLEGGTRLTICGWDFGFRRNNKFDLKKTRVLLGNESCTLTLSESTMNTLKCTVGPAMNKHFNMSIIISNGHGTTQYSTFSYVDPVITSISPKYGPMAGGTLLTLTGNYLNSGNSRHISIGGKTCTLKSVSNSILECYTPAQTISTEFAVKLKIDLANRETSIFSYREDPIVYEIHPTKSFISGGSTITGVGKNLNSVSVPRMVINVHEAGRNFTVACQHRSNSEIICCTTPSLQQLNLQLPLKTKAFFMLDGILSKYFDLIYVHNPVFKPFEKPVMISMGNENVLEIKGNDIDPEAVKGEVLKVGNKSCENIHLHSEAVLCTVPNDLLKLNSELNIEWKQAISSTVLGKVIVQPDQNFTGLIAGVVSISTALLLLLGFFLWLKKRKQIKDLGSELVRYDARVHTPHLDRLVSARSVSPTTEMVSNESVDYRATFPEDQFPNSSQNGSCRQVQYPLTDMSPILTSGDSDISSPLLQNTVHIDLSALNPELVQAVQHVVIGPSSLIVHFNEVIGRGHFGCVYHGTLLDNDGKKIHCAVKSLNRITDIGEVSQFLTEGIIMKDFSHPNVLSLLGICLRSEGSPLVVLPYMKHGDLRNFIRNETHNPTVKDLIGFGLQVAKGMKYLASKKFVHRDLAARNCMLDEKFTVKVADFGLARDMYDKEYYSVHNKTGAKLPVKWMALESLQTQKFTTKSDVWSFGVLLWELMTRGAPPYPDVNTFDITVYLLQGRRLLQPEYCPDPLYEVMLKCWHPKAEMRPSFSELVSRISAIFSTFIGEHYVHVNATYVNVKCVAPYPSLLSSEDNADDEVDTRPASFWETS
Experimental: Alternatively, the following assay is used to determine inhibition of c-Met phosphorylation.
The c-Met receptor is expressed in numerous cancer cell lines derived from tumors of epithelial origin. In MKN45 gastric carcinoma cells the c-Met gene is amplified, resulting in several-fold overexpression of the receptor and its constitutive activation.
Cell treatments: MKN45 cells are seeded into wells of 96-well plates at a density of 3×10^4 cells/well in RPMI medium supplemented with 10% FBS. […] Inhibitors are added to the medium in triplicate wells at the indicated doses.
After an overnight protein binding incubation at 4° C., lysates are aspirated and wells are blocked for 1 h at 37° C. in TBST supplemented with 5% BSA. Plates are incubated with the primary antibodies anti-phospho-Tyrosine (Millipore, 4G10) diluted 1/15000 in TBST supplemented with 5% BSA for 1 h at room temperature. Plates are washed 3 times on a plate washer (SkanWasher, Molecular Devises), and incubated with the reporter antibody […] (Sigma) diluted 1/15000 in TBST supplemented with 5% BSA, for 1 h at room temperature. Plates are washed 3 times with TBST using on a plate washer and subsequently incubated with chemiluminescent substrate solution (ECL, Roche). Luminescence signal is captured on a Polar Star Optima apparatus (BMG LabTech).
Average values of the triplicate samples are used to prepare IC50 curves using a 4-parameter fit model. These curves are calculated using, for example, GraFit 5.0 software. For assay standardization purpose, an internal control is included on each experimental test plate.

[1] = target: recombinant human c-Met/HGF receptor (Homo sapiens, UniProt P08581); experiment: In vitro receptor tyrosine kinase assay, c-Met/HGF receptor (DELFIA)
Sequence of recombinant human c-Met/HGF receptor (P08581 1078-1337): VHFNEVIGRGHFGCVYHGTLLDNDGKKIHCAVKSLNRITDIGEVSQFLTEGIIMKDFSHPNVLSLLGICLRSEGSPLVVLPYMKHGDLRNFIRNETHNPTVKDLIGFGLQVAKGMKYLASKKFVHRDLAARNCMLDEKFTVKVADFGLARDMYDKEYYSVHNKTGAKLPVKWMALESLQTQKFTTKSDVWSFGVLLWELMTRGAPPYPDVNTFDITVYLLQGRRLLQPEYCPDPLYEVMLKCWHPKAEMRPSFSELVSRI

T1 sequence (P35968 806-1356): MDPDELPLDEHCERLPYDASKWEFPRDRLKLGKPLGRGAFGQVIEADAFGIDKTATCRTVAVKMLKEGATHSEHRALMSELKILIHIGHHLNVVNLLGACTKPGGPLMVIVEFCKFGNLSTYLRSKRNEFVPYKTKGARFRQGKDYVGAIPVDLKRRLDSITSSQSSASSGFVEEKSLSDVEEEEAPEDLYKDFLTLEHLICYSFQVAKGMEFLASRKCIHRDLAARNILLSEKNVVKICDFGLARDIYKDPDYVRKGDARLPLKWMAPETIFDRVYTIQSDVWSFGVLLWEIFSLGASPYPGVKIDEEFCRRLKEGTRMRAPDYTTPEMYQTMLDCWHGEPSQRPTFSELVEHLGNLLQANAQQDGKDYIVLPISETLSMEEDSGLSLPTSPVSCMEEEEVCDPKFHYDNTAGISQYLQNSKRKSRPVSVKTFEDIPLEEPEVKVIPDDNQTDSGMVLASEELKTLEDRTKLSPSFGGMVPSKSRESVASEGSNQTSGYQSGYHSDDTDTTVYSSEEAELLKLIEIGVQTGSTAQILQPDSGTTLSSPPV

Row | SMILES | IC50 (VEGF receptor KDR; read-out: VEGFR IC50) | IC50 (A549; Homo sapiens, A549 cells) | IC50 (DU145; Homo sapiens, DU-145) | IC50 (c-Met) | IC50 [1] | IC50 (A549; Homo sapiens, A549, A549 cells) | IC50 (VEGF receptor KDR; read-out: VEGFR (IC50)) | IC50 (A549; A549 cells) | IC50 (DU145)
1 | COC[C@H](C)NCc1cccc(-c2cc3nccc(Oc4ccc(NC(=O)N5CCN(c6ccccc6)C5=O)cc4F)c3s2)c1 | < 250 nM | 250 to 500 nM | 250 to 500 nM | < 250 nM | < 250 nM |  |  |  | 
2 | O=C(Nc1ccc(Oc2ccnc3cc(-c4cccc[n+]4[O-])sc23)c(F)c1)N1CCN(c2ccc(F)cc2)C1=O | < 250 nM | < 250 nM | < 250 nM | < 250 nM | < 250 nM |  |  |  | 
3 | COCCNCc1cccc(-c2cc3nccc(Oc4ccc(NC(=O)N5CCN(c6ccccc6)C5=O)cc4F)c3s2)c1 | < 250 nM | 250 to 500 nM | < 250 nM | < 250 nM | < 250 nM |  |  |  | 
4 | CS(=O)(=O)CCNCc1ccc(-c2cc3nccc(Oc4ccc(NC(=O)N5CCN(c6ccccc6)C5=O)cc4F)c3s2)cc1 | < 250 nM | > 1000 nM | 250 to 500 nM | < 250 nM | < 250 nM |  |  |  | 
5 | COC[C@H](C)NCc1ccc(-c2cc3nccc(Oc4ccc(NC(=O)N5CCN(c6ccccc6)C5=O)cc4F)c3s2)cc1 | < 250 nM | < 250 nM | < 250 nM | < 250 nM | < 250 nM |  |  |  | 
6 | O=C(Nc1ccc(Oc2ccnc3cc(-c4ccc(CNC5CC5)cc4)sc23)c(F)c1)N1CCN(c2ccccc2)C1=O | < 250 nM | 250 to 500 nM | < 250 nM | < 250 nM | < 250 nM |  |  |  | 
7 | O=C(Nc1ccc(Oc2ccnc3cc(-c4cnn(C5CCNCC5)c4)sc23)c(F)c1)N1CCN(c2ccccc2)C1=O | < 250 nM | > 1000 nM | 250 to 500 nM | < 250 nM | < 250 nM |  |  |  | 
8 | O=C(NNC(=O)c1ccccc1)Nc1ccc(Oc2ccnc3cc(C4=CCNCC4)sc23)c(F)c1 | < 250 nM | > 1000 nM | > 1000 nM | > 1000 nM | 250 to 500 nM |  |  |  | 
9 | O=C(Nc1ccc(Oc2ccnc3cc(-c4ccc(CNCC(F)(F)F)cc4)sc23)c(F)c1)N1CCN(c2ccccc2)C1=O | 250 to 500 nM | > 1000 nM | > 1000 nM | 500 to 1000 nM |  |  |  |  | 
10 | CN(C)CC(=O)N1CC=C(c2cc3nccc(Oc4ccc(NC(=O)N5CCN(c6ccccc6)C5=O)cc4F)c3s2)CC1 | < 250 nM | < 250 nM | < 250 nM | < 250 nM | < 250 nM |  |  |  | 
11 | CS(=O)(=O)c1ccc(-c2cc3nccc(Oc4ccc(NC(=O)N5CCN(c6ccccc6)C5=O)cc4F)c3s2)cc1 | 250 to 500 nM |  |  | < 250 nM | 250 to 500 nM |  |  |  | 
12 | Cn1ccnc1-c1cc2nccc(Oc3ccc(NC(=O)c4ncc(-c5ccccc5)s4)cc3F)c2s1 | > 1000 nM |  |  |  | > 1000 nM |  |  |  | 
13 | Cn1ccnc1-c1cc2nccc(Oc3ccc(NC(=O)c4ccc(-c5ccccc5)cc4F)cc3F)c2s1 | > 1000 nM |  |  |  | < 250 nM |  |  |  | 
14 | Cn1ccnc1-c1cc2nccc(Oc3ccc(NC(=O)c4cnn(-c5ccccc5)c4C(F)(F)F)cc3F)c2s1 | > 1000 nM |  | > 1000 nM |  |  | > 1000 nM |  |  | 
15 | Cc1c(C(=O)Nc2ccc(Oc3ccnc4cc(-c5cn(C)cn5)sc34)c(F)c2)cnn1-c1ccccc1 | > 1000 nM |  | > 1000 nM |  |  | 250 to 500 nM |  |  | 
16 | CN(C)C(=O)c1ccc(-c2cc3nccc(Oc4ccc(NC(=O)c5cnn(-c6ccccc6)c5C(F)(F)F)cc4F)c3s2)cc1 | > 1000 nM |  | 250 to 500 nM |  |  | < 250 nM |  |  | 
17 | CS(=O)(=O)CCNCc1ccc(-c2cc3nccc(Oc4ccc(NC(=O)c5cnn(-c6ccccc6)c5C(F)(F)F)cc4F)c3s2)cc1 | > 1000 nM |  | > 1000 nM |  |  | > 1000 nM |  |  | 
18 | COCCNC(=O)c1ccc(-c2cc3nccc(Oc4ccc(NC(=O)c5cnn(-c6ccccc6)c5C(F)(F)F)cc4F)c3s2)nc1 | > 1000 nM |  | > 1000 nM |  |  | > 1000 nM |  |  | 
19 | CN(C)C(=O)c1ccc(-c2cc3nccc(Oc4ccc(NC(=O)c5cnn(-c6ccccc6)c5C(F)(F)F)cc4F)c3s2)nc1 | > 1000 nM |  | 250 to 500 nM |  |  | 250 to 500 nM |  |  | 
20 | CCOC(=O)c1ccc(-c2cc3nccc(Oc4ccc(NC(=O)c5cnn(-c6ccccc6)c5C(F)(F)F)cc4F)c3s2)cc1 | > 1000 nM | > 1000 nM | > 1000 nM |  | > 1000 nM |  |  |  | 
21 | COCCN(C)C(=O)c1ccc(-c2cc3nccc(Oc4ccc(NC(=O)c5cnn(-c6ccccc6)c5C(F)(F)F)cc4F)c3s2)nc1 | > 1000 nM | 250 to 500 nM | > 1000 nM |  | < 250 nM |  |  |  | 
22 | Cn1cnc(-c2cc3nccc(Oc4ccc(NC(=O)c5cnn(C)c5C(F)(F)F)cc4F)c3s2)c1 | 500 to 1000 nM | > 1000 nM | > 1000 nM |  | < 250 nM |  |  |  | 
23 | CS(=O)(=O)c1ccc(-c2cc3nccc(Oc4ccc(NC(=O)c5cnn(-c6ccccc6)c5C(F)(F)F)cc4F)c3s2)nc1 | > 1000 nM | < 250 nM | 250 to 500 nM |  | < 250 nM |  |  |  | 
24 | CN(C)C(=O)c1ccc(-c2cc3nccc(Oc4ccc(NC(=O)c5cnn(-c6ccc(F)cc6)c5C(F)(F)F)cc4F)c3s2)cc1 | > 1000 nM | > 1000 nM | > 1000 nM |  | < 250 nM |  |  |  | 
25 | Cn1cnc(-c2cc3nccc(Oc4ccc(NC(CC(=O)Nc5ccccc5)C(F)(F)F)cc4F)c3s2)c1 (stereo not drawn) [Compound 8, 4,4,4-Trifluoro-3-(3-fluoro-4-(2-(1-methyl-1H-imidazol-4-yl)thieno[3,2-b]pyridin-7-yloxy)phenylamino)-N-phenylbutanamide] |  |  |  |  |  |  | < 250 nM |  | 
26 | Cn1cnc(-c2cc3nccc(Oc4ccc(NC(=O)CC(Nc5ccccc5)C(F)(F)F)cc4F)c3s2)c1 (stereo not drawn) [Compound 12, 4,4,4-Trifluoro-N-(3-fluoro-4-(2-(1-methyl-1H-imidazol-4-yl)thieno[3,2-b]pyridin-7-yloxy)phenyl)-3-(phenylamino)butanamide] |  |  |  |  |  |  | < 250 nM |  | 
27 | Cn1cnc(-c2cc3nccc(Oc4ccc(NC(=O)c5cnn(-c6ccccc6)c5)cc4F)c3s2)c1 [drawing 192] | > 1000 nM |  | > 1000 nM |  |  |  |  | 250 to 500 nM | 
28 | Cn1cnc(-c2cc3nccc(Oc4ccc(NC(=O)c5cnn(-c6ccccc6)c5)cc4F)c3s2)c1 [drawing 202] | 500 to 1000 nM |  |  |  |  |  |  | > 1000 nM | > 1000 nM

Reference: patent US20080064718A1, “INHIBITORS OF PROTEIN TYROSINE KINASE ACTIVITY” (priority 2006, published 2008)
